Columns and labels:
wild-type CD1 mice = test: Cardiac targeting peptide imaging studies (microSPECT/CT and dynamic planar imaging); assay type: in vivo, mouse; conditions: 1-5 mCi injected; dual modality microSPECT/CT
Description: Cardiac targeting peptide was synthesized as detailed above, with HYNIC conjugated to the N-terminus and labeled with ^99mTc in a manner that was analogous to that described previously. The desired ^99mTc-HYNIC-CTP was purified from the crude reaction mixture using solid-phase extraction methods. The radiochemical purity of the final product was determined using reverse-phase HPLC methods.
Wild-type, 6–8 week old, CD1 mice (~25 g) were injected with 1–5 mCi of ^99mTc Sestamibi or ^99mTc-HYNIC-CTP, and was imaging performed immediately post-injection and at various time points using a Siemens Inveon dual-modality single photon emission computerized tomography/computerized tomography (SPECT/CT) with 5-MWB-1.0 collimators (Siemens Corporation, Washington, DC, USA). The images were resliced for a coronal view and they were Z-stack summed. Analysis of the distribution of the radioisotope was performed using ImageJ software. Measurements were taken by selecting a region of interest at the 0 h time point, applying the same region at different time points for dynamic time course studies. All counts were corrected for the radioactive decay of ^99mTc. For a comparison of dynamic planar images, the highest count in each organ (heart, kidney, and bladder) was set at 100%, and the counts at other time-points plotted as a percentage of that count.

transferrin receptor = biological target: T1, transferrin receptor (Rattus norvegicus, UniProt Q99376); test: LRC-TriCEPs ligand-receptor capture on H9C2 cells, mass spectrometry (transferrin positive control); assay type: binding; conditions: TriCEPS-transferrin conjugate on H9C2 cells; triplicate
T1 construct: endogenous in cells; host or cells: H9C2 rat cardiomyoblast cells
Source text: To identify a possible binding partner for CTP, we utilized LRC-TriCEPs technology a service provided by Dualsystems Biotech (Zurich, Switzerland). This methodology relies on TriCEPs™, a trifunctional chemoproteomics reagent, containing (1) a N-hydroxysuccinimide (NHS) ester for attachment to the ligand, (2) a protected hydrazine function for capturing the interacting receptor, and (3) a function for the purification of the ligand-receptor complex. Rat cardiomyoblast cell line H9C2 cells were grown in Dulbecco’s Modified Eagle’s Medium: Nutrient Mixture F-12 (DMEM/F12) (Gibco, Gaithersburg, MD, USA; cat #11039) medium supplemented with 10% fetal bovine serum and maintained at ≤70% confluence. A pretest was performed to identify the binding conditions of the TriCEPS-CTP conjugate on H9C2 cells at varying temperatures, times of incubation, and pH, with successful labeling being analyzed by fluorescence-activated cell sorting (FACs). The LRC-TriCEPS experiment was performed with TriCEP-CTP, TriCEPS-transferrin, and TriCEPS-glycine conjugates, each in triplicate. After the incubation period, cells were lazed and purified using solid-state chromatography, and identified using mass spectrometry. […]

[1] = system: human iPSC-derived beating cardiomyocytes (CMCs); test: Transduction of human iPSC-derived cardiomyocytes (confocal imaging); assay type: cell-based; conditions: 10 μM, 30 min, 37 °C; washed 3x with PBS; confocal microscopy; Supplemental Figure 5
Description: All protocols involving human tissue samples were approved by the University of Pittsburgh Institutional Review Board (No. PRO09090021). […] After the incubation period, cells were washed, and live confocal imaging was performed immediately.

beating neonatal CMCs = test: Uptake of dual-labeled CTP by beating neonatal cardiomyocytes (confocal microscopy); assay type: cell-based, mouse; conditions: Digoxin 100 nM; 20 mM K+; dual-labeled CTP 25 μM; n = 3; p-value < 0.001
Description: To further study the CTP’s mechanism of transduction, CMCs were isolated from 1–3-day old mouse pups using published protocols. Beating CMCs were incubated with the dual-labeled CTP (25 μM) under normokalemic (5 mM) and hyperkalemic (20 mM) conditions. […] The degree of transduction of these cells was quantified using confocal microscopy. […] Rhodamine with an ester link was used as a negative control.

T1 sequence (Q99376 whole entry): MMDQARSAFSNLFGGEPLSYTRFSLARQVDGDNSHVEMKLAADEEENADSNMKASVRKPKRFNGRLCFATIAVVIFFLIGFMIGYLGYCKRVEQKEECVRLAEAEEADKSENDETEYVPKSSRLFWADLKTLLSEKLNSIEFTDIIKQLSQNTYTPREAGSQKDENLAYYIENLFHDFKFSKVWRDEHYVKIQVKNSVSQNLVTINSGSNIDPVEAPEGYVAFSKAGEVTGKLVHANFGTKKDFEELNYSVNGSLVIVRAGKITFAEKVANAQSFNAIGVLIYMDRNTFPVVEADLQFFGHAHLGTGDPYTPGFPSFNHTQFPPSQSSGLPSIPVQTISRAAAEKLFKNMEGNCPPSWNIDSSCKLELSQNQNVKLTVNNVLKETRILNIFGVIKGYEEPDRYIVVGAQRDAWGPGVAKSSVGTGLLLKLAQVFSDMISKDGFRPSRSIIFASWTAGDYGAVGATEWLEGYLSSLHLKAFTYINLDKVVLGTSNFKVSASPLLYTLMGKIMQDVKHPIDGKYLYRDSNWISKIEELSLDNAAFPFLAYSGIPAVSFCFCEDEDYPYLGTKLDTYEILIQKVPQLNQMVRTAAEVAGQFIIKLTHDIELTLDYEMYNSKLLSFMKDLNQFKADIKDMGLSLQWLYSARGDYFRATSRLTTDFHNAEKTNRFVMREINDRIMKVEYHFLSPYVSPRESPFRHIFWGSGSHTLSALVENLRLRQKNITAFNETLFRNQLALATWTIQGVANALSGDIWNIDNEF

`[C-]#[N+]CC(C)(C)OC.[C-]#[N+]CC(C)(C)OC.[C-]#[N+]CC(C)(C)OC.[C-]#[N+]CC(C)(C)OC.[C-]#[N+]CC(C)(C)OC.[C-]#[N+]CC(C)(C)OC.[Tc]` [^99mTc Sestamibi] was tested, and the “uptake by the heart (SPECT/CT)” value (wild-type CD1 mice) was “cardiac uptake” and the “uptake in the liver or gut (for Sestamibi also kidneys)” value (wild-type CD1 mice) was “significant uptake”.
In the case of “transferrin: positive control ligand in the LRC-TriCEPS experiment”, the “fold increase of transferrin receptor in the positive control over CTP” value (transferrin receptor) is reported as ~5 fold.
H-STLMKFCYVEQN-OH [RAN] was tested, and the “uptake by human iPSC-derived CMCs” value [1] was “some background binding to the gel matrix”.
For `C[C@H]1O[C@@H](O[C@H]2[C@@H](O)C[C@H](O[C@H]3[C@@H](O)C[C@H](O[C@H]4CC[C@@]5(C)[C@H](CC[C@@H]6[C@@H]5C[C@@H](O)[C@]5(C)[C@@H](C7=CC(=O)OC7)CC[C@]65O)C4)O[C@@H]3C)O[C@@H]2C)C[C@H](O)[C@@H]1O` [Digoxin], the “effect of pre-incubation on the hyperkalemia-induced increase in CTP uptake” value (beating neonatal CMCs) was “significantly abrogated”.

From PMC6315548, “Cardiac Targeting Peptide, a Novel Cardiac Vector: Studies in Bio-Distribution, Imaging Application, and Mechanism of Transduction” (Biomolecules, 2018)
